The record followed here is ChEMBL document CHEMBL5726731, “Substituted benzenesulfonamides as sodium channel blockers” (2019).

The experiment is described as follows: Measurement of Sodium Ion Channel Blocking Effects: In order to measure the sodium ion channel blocking effect, an IonFlux16 Auto patch clamp system (Fluxion, Inc.) and a plate for exclusive use were used. The cells were distributed in an extracellular solution (4 mM KCl, 138 mM NaCl, 1 mM MgCl2, 1.8 mM CaCl2, 5.6 mM glucose, 10 mM HEPES, pH 7.45), and then dispensed in the specified region of the plate, and each of the prepared compound samples was diluted at various concentrations, and then dispensed in the specified region of the plate. Type of experiment: cell-based. On the technique in general: In patch-clamp work, channel activity is measured electrically.
On to `COc1ccc(Nc2cc(F)c(S(=O)(=O)Nc3cscn3)cc2Cl)c(N2CC[C@H](N(C)C)C2)c1`, for which the IC50 (as a rule, the concentration at which inhibition is half-maximal) was found to be 435 nM. The figure for `CNC1CCN(c2cc(OC(F)(F)F)ccc2Nc2c(F)cc(S(=O)(=O)Nc3cscn3)cc2F)C1` (centres undefined) is 369 nM.

Molecule `COC1CCN(c2cc(F)ccc2Nc2cc(F)c(S(=O)(=O)Nc3cscn3)cc2Cl)C1` (centres undefined) registered an IC50 of 277 nM. The figure for `CN[C@H]1CCN(c2cc(C(F)(F)F)ccc2Nc2ccc(S(=O)(=O)Nc3cscn3)cc2Cl)C1` is 28 nM; for `CNC1CCN(c2cc(C)ccc2Nc2cc(F)c(S(=O)(=O)Nc3cscn3)cc2Cl)C1` (centres undefined) it is 489 nM. The figure for `CN1CCN(c2cc(C(F)(F)F)ccc2Nc2cc(F)c(S(=O)(=O)Nc3cscn3)cc2Cl)CC1` is 541 nM. As for `CN[C@@H]1CCCN(c2cc(OC)ccc2Nc2ccc(S(=O)(=O)Nc3cscn3)cc2)C1`, the concentration for half-maximal inhibition (IC50) is > 1000 nM. The result for `CN(C)[C@H]1CCN(c2cc(C(F)(F)F)ccc2Nc2cc(F)c(S(=O)(=O)Nc3cscn3)cc2Cl)C1` reads 1170 nM; that for `O=S(=O)(Nc1cscn1)c1ccc(Nc2ccc(F)cc2N2CC[C@@H](F)C2)cc1`, > 1000 nM. The result for `CN(C)[C@@H]1CCN(c2cc(OC(F)F)ccc2Nc2cc(F)c(S(=O)(=O)Nc3cscn3)cc2Cl)C1` reads 126 nM; that for `O=S(=O)(Nc1cscn1)c1cc(Cl)c(Nc2ccc(Cl)cc2N2CCC(N3CCCC3)C2)cc1F` (centres undefined), 125 nM; that for `CNC1CCN(c2cc(C(F)(F)F)ccc2Nc2ccc(S(=O)(=O)Nc3cscn3)cc2Cl)C1` (centres undefined), 27 nM. The figure for `CNC1CCN(c2cc(OC)ccc2Nc2ccc(S(=O)(=O)Nc3cscn3)c(F)c2)C1` (centres undefined) is > 1000 nM. Molecule `CC(=O)N[C@@H]1CCN(c2cc(C(F)(F)F)ccc2Nc2cc(F)c(S(=O)(=O)Nc3cscn3)cc2Cl)C1` displayed an IC50 of 212 nM.

As for `CN(C)CCN(C)c1cc(F)ccc1Nc1cc(F)c(S(=O)(=O)Nc2cscn2)cc1Cl`, the concentration for half-maximal inhibition (IC50) was found to be 100 nM. The result for `CN[C@@H]1CCCN(c2cc(Cl)ccc2Nc2cc(F)c(S(=O)(=O)Nc3cscn3)cc2Cl)C1` reads 44 nM.

For `CC(=O)N[C@@H]1CCN(c2cc(Cl)ccc2Nc2cc(F)c(S(=O)(=O)Nc3cscn3)cc2Cl)C1`, half-maximal inhibition (IC50) required 120 nM. Regarding `CN(C)[C@H]1CCN(c2cc(F)ccc2Nc2cc(F)c(S(=O)(=O)Nc3cscn3)cc2Cl)C1`, the IC50 was > 10000 nM. The result for `O=S(=O)(Nc1cscn1)c1ccc(Nc2ccc(F)cc2N2CC[C@@H](F)C2)cc1F` reads > 1000 nM; that for `COC1CCN(c2cc(C(F)(F)F)ccc2Nc2cc(F)c(S(=O)(=O)Nc3cscn3)cc2Cl)C1` (centres undefined), 140 nM.

For `CN(C)[C@H]1CCN(c2cc(C(F)(F)F)ccc2Nc2ccc(S(=O)(=O)Nc3cscn3)cc2Cl)C1`, the IC50 stood at 103 nM. This IC50 and that of the molecule before are within 1.5-fold of each other. The result for `O=S(=O)(Nc1cscn1)c1cc(F)c(Nc2ccc(F)cc2N2CC[C@@H](F)C2)c(F)c1` reads > 1000 nM.

As for `CN1CCN(c2cc(F)ccc2Nc2cc(F)c(S(=O)(=O)Nc3cscn3)cc2Cl)CC1`, the half-inhibitory concentration (IC50) is > 1000 nM. The result for `NC1CCN(c2cc(F)ccc2Nc2ccc(S(=O)(=O)Nc3cscn3)cc2Cl)C1` (centres undefined) reads 241 nM. The figure for `CNC1CCN(c2cc(OC(F)(F)F)ccc2Nc2cc(F)c(S(=O)(=O)Nc3cscn3)cc2Cl)C1` (centres undefined) is 53 nM. Take `CCN(CC)C1CCN(c2cc(Cl)ccc2Nc2cc(F)c(S(=O)(=O)Nc3cscn3)cc2Cl)C1` (centres undefined): the 50% inhibitory concentration (IC50) came to 182 nM.

With `CNCCN(C)c1ccccc1Nc1cc(F)c(S(=O)(=O)Nc2ccc(F)cn2)cc1Cl`, the concentration for half-maximal inhibition (IC50) was found to be 70 nM. The molecule `CN[C@H]1CCN(c2cc(F)ccc2Nc2cc(F)c(S(=O)(=O)Nc3cscn3)cc2Cl)C1` came in with an IC50 of 50 nM. The IC50 values of the last two molecules are within 1.5-fold of each other. `CNC1CCN(c2cc(F)ccc2Nc2ccc(S(=O)(=O)Nc3cscn3)c(F)c2)C1` (centres undefined) returned an IC50 of 372 nM. Compared with the last molecule, the IC50 is about 7.4-fold higher. The figure for `CNCCN(C)c1cc(C#N)ccc1Nc1cc(F)c(S(=O)(=O)Nc2ccccn2)cc1Cl` is 460 nM; for `CN1CCN(c2cc(F)ccc2Nc2ccc(S(=O)(=O)Nc3cscn3)cc2Cl)CC1` it is > 1000 nM. Consider `O=S(=O)(Nc1cscn1)c1cc(Cl)c(Nc2ccc(F)cc2N2CC[C@@H](F)C2)cc1F`, for which half-maximal inhibition (IC50) was put at 236 nM. The result for `O=S(=O)(Nc1cscn1)c1cc(Cl)c(Nc2ccc(F)cc2N2CCCNCC2)cc1F` reads 149 nM; that for `CNC1CCN(c2c(F)cccc2Nc2ccc(S(=O)(=O)Nc3cscn3)cc2Cl)C1` (centres undefined), 375 nM. The figure for `CN[C@@H]1CCCN(c2cc(F)ccc2Nc2ccc(S(=O)(=O)Nc3cscn3)cc2)C1` is > 1000 nM; for `CN[C@@H]1CCCN(c2cc(OC)ccc2Nc2ccc(S(=O)(=O)Nc3cscn3)cc2Cl)C1` it is > 1000 nM; for `CN[C@@H]1CCN(c2cc(F)ccc2Nc2ccc(S(=O)(=O)Nc3cscn3)c(F)c2)C1` it is > 300 nM.

Regarding `COC1CCN(c2cc(C(F)(F)F)ccc2Nc2ccc(S(=O)(=O)Nc3cscn3)cc2Cl)C1` (centres undefined), half-maximal inhibition (IC50) required 352 nM.

Molecule `CN[C@H]1CCN(c2cc(C(F)(F)F)ccc2Nc2cc(F)c(S(=O)(=O)Nc3cscn3)cc2Cl)C1` gave a half-maximal inhibitory concentration (IC50) of 23 nM. In turn, `CNCCN(C)c1cc(OC)ccc1Nc1cc(F)c(S(=O)(=O)Nc2cscn2)cc1Cl` had a half-inhibitory concentration (IC50) of 140 nM. The figure for `CN1CCN(c2cc(OC(F)F)ccc2Nc2cc(F)c(S(=O)(=O)Nc3cscn3)cc2Cl)CC1` is 160 nM; for `NC1CCN(c2cc(F)ccc2Nc2ccc(S(=O)(=O)Nc3cscn3)c(F)c2)C1` (centres undefined) it is > 1000 nM; for `CNC1CCN(c2cc(F)ccc2Nc2ccc(S(=O)(=O)Nc3cscn3)cc2Cl)C1` (centres undefined) it is 1010 nM. The figure for `CNC1CCN(c2nc(Cl)ccc2Nc2cc(F)c(S(=O)(=O)Nc3cscn3)cc2Cl)C1` (centres undefined) is > 1000 nM; for `CNC1CCN(c2cc(F)ccc2Nc2c(F)cc(S(=O)(=O)Nc3cscn3)cc2F)C1` (centres undefined) it is 412 nM. The result for `CNC1CCN(c2cc(OC(F)(F)F)ccc2Nc2ccc(S(=O)(=O)Nc3cscn3)cc2)C1` (centres undefined) reads 447 nM; that for `CN(C)CCN(C)c1cc(F)ccc1Nc1ccc(S(=O)(=O)Nc2cscn2)cc1Cl`, 350 nM. Turning to `CN(C)[C@@H]1CCN(c2cc(F)ccc2Nc2cc(F)c(S(=O)(=O)Nc3cscn3)cc2Cl)C1`, the half-maximal inhibitory concentration (IC50) stood at 100 nM. For the molecule `CC(=O)N[C@@H]1CCN(c2cc(F)ccc2Nc2cc(F)c(S(=O)(=O)Nc3cscn3)cc2Cl)C1`, the IC50 worked out at 1930 nM. This IC50 is about 19-fold higher than that of the molecule before.

`CNCCN(C)c1ccccc1Nc1cc(F)c(S(=O)(=O)Nc2nccs2)cc1Cl` had a half-inhibitory concentration (IC50) of 50 nM. The figure for `CNCCN(C)c1cc(C(F)(F)F)ccc1Nc1cc(F)c(S(=O)(=O)Nc2ccccn2)cc1Cl` is 70 nM; for `CNC1CCN(c2cc(C(F)(F)F)ccc2Nc2cc(F)c(S(=O)(=O)Nc3cscn3)cc2Cl)C1` (centres undefined) it is 21 nM. The result for `CNCCN(C)c1cc(C#N)ccc1Nc1cc(F)c(S(=O)(=O)Nc2nccs2)cc1Cl` reads 20 nM; that for `CNC1CCN(c2cc(OC(F)(F)F)ccc2Nc2ccc(S(=O)(=O)Nc3cscn3)c(F)c2)C1` (centres undefined), 108 nM; that for `CC(=O)N[C@@H]1CCN(c2cc(C(F)(F)F)ccc2Nc2ccc(S(=O)(=O)Nc3cscn3)cc2Cl)C1`, 216 nM. Consider `CNCCN(C)c1cc(OC)ccc1Nc1cc(F)c(S(=O)(=O)Nc2ccc(F)cn2)cc1Cl`, for which the concentration for half-maximal inhibition (IC50) was found to be 200 nM.

`CN[C@@H]1CCN(c2cc(F)ccc2Nc2ccc(S(=O)(=O)Nc3cscn3)cc2Cl)C1` had a half-maximal inhibitory concentration (IC50) of 362 nM. The figure for `CN[C@@H]1CCCN(c2cc(OC)ccc2Nc2cc(F)c(S(=O)(=O)Nc3cscn3)cc2Cl)C1` is 73 nM; for `CNCCN(C)c1cc(C(F)(F)F)ccc1Nc1cc(F)c(S(=O)(=O)Nc2nccs2)cc1Cl` it is 10 nM; for `CNCCN(C)c1cc(C(F)(F)F)ccc1Nc1cc(F)c(S(=O)(=O)Nc2ccc(F)cn2)cc1Cl` it is 50 nM. `CNC1CCN(c2cc(C#N)ccc2Nc2cc(F)c(S(=O)(=O)Nc3cscn3)cc2Cl)C1` (centres undefined) showed an IC50 of 32 nM. `CN[C@H]1CCN(c2cc(F)ccc2Nc2ccc(S(=O)(=O)Nc3cscn3)c(F)c2)C1` showed a 50% inhibitory concentration (IC50) of 241 nM. Compared with the last molecule, the IC50 is about 7.5-fold higher. On to `NC1CCN(c2cc(F)ccc2Nc2cc(F)c(S(=O)(=O)Nc3cscn3)cc2Cl)C1` (centres undefined), for which the midpoint of inhibition, the IC50, lay at 205 nM. This IC50 and that of the molecule before are within 1.5-fold of each other.

Molecule `CNC1CCN(c2c(F)cccc2Nc2ccc(S(=O)(=O)Nc3cscn3)c(F)c2)C1` (centres undefined) gave a half-inhibitory concentration (IC50) of 686 nM. The result for `CN(C)[C@@H]1CCN(c2cc(C(F)(F)F)ccc2Nc2cc(F)c(S(=O)(=O)Nc3cscn3)cc2Cl)C1` reads 278 nM; that for `CNCCN(C)c1cc(OC)ccc1Nc1cc(F)c(S(=O)(=O)Nc2nccs2)cc1Cl`, 20 nM.

`CC(=O)N[C@@H]1CCN(c2cc(F)ccc2Nc2ccc(S(=O)(=O)Nc3cscn3)cc2Cl)C1` had an IC50 of 6580 nM. This IC50 is about 330-fold higher than that of the molecule before. The result for `O=S(=O)(Nc1cscn1)c1ccc(Nc2ccc(F)cc2N2CC[C@@H](F)C2)c(Cl)c1` reads > 1000 nM; that for `CNC1CCN(c2cc(Cl)cnc2Nc2cc(F)c(S(=O)(=O)Nc3cscn3)cc2Cl)C1` (centres undefined), > 1000 nM. The figure for `CN[C@@H]1CCN(c2cc(F)ccc2Nc2cc(F)c(S(=O)(=O)Nc3cscn3)cc2Cl)C1` is 44 nM; for `CNC1CCN(c2cc(OC)ccc2Nc2ccc(S(=O)(=O)Nc3cscn3)cc2Cl)C1` (centres undefined) it is > 1000 nM. On to `CN[C@@H]1CCCN(c2cc(OC)ccc2Nc2c(F)cc(S(=O)(=O)Nc3cscn3)cc2F)C1`, for which the IC50 was > 1000 nM. The result for `CNCCN(C)c1ccccc1Nc1cc(F)c(S(=O)(=O)Nc2ccccn2)cc1Cl` reads 120 nM; that for `CN[C@@H]1CCN(c2cc(F)ccc2Nc2c(F)cc(S(=O)(=O)Nc3cscn3)cc2F)C1`, > 1000 nM. The result for `CN(C)[C@H]1CCN(c2cc(OC(F)F)ccc2Nc2cc(F)c(S(=O)(=O)Nc3cscn3)cc2Cl)C1` reads 46 nM. With `CN[C@@H]1CCCN(c2cc(F)ccc2Nc2ccc(S(=O)(=O)Nc3cscn3)c(F)c2)C1`, the midpoint of inhibition, the IC50, lay at 357 nM. The figure for `CN[C@@H]1CCN(c2cc(F)ccc2Nc2ccc(S(=O)(=O)Nc3cscn3)cc2)C1` is > 1000 nM. The result for `COC1CCN(c2cc(F)ccc2Nc2ccc(S(=O)(=O)Nc3cscn3)cc2Cl)C1` (centres undefined) reads 1220 nM; that for `CN[C@@H]1CCCN(c2cc(OC)ccc2Nc2ccc(S(=O)(=O)Nc3cscn3)c(F)c2)C1`, > 1000 nM.
